Source: paper PMC9452764, “Pseudomonas syringae pv. tomato infection of tomato plants is mediated by GABA and L‐Pro chemoperception” (Molecular Plant Pathology, 2022)
Like-named read-outs stand apart in the source and are kept apart here.

Target: T1, PsPto‐PscC‐LBD (Pseudomonas syringae group genomosp. 3, UniProt Q883C0)
T1 construct: gene PSPTO_2448; pET28b(+) derivative p2448-LBD, HisTrap purified, E. coli BL21(AI)
Experiment: isothermal titration calorimetry
Assay type: binding

T1 sequence (Q883C0 entry or part of it): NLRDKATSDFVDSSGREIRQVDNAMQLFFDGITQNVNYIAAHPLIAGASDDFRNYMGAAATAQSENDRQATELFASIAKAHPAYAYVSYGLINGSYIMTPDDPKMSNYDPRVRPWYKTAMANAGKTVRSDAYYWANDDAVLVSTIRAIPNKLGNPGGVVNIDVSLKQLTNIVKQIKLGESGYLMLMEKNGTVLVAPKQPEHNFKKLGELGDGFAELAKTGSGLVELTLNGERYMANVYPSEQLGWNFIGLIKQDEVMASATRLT

SMILES	Kd	Kd (read-out: K D)
O=C(O)[C@@H]1CCCN1 [L‐Pro]	4.52 ± 0.4 µM	–
NCCCC(=O)O [GABA]	–	1.87 ± 0.3 µM
